# Measured values taken from paper PMC8001472, “Novel Selective IDO1 Inhibitors with Isoxazolo[5,4-d]pyrimidin-4(5H)-one Scaffold” (Pharmaceuticals, 2021).
# Key:
# hIDO2 = target: T1, hIDO2 (Homo sapiens, UniProt Q6ZQW0); assay: hIDO2 inhibitory potency evaluation (fluorescence assay); type: biochemical; settings: 100 µM compound; n.a. = not active; read-out: IDO2 % of Inhibition @ 100 µM
# T1 construct: purchased Vinci-Biochem
# T1 sequence (Q6ZQW0 1-407): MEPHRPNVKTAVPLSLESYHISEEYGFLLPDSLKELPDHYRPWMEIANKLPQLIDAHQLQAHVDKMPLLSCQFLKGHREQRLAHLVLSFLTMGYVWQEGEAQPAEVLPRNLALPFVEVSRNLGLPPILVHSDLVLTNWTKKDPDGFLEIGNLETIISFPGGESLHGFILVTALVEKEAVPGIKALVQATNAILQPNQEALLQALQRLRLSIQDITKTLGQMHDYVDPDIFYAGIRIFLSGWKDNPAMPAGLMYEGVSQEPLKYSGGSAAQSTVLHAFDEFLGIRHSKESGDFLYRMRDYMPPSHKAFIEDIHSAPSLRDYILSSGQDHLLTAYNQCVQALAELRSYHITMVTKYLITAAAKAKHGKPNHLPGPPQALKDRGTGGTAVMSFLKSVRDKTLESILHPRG
# Experimental: (§1) Additionally, to determine IDO1 selectivity, all final compounds were assayed for their inhibitory potencies towards hIDO2 and hTDO. For this purpose, two new protocols were developed based on the published fluorescence assay for hIDO1 [25]. Sodium ascorbate, methylene blue, and bovine catalase were used in the same concentrations as for hIDO1. 50 mM phosphate buffers with pH values of 7.5 and 7.0 were used for hIDO2 and hTDO, respectively, as has been already mentioned before. First, the activities of hIDO2 and hTDO were determined at four different concentrations. […] Additionally, the effect of DMSO concentration on enzyme activity was investigated. […] The optimal hIDO2 and hTDO assay concentrations of the substrate L-Trp were determined to be 4 mM and 500 μM, respectively.
# Activity of the compounds on hIDO2 was determined according to the previously reported fluorescence protocol for hIDO1 [25] and reported absorbance protocols for hIDO2 [30, 36] with several modifications. Recombinant hIDO2 was purchased from Vinci-Biochem (Vinci-Biochem, Srl, Vinci, Italy), bovine catalase was purchased from Sigma-Aldrich (Sigma-Aldrich, St. Louis, MO, USA). Prior to the measurement of activity for compounds, the enzyme activity was determined and optimal assay enzyme concentration was selected. The amounts of reagents needed to perform the assay were optimized. Briefly, the reagents needed were dissolved in 50 mM potassium phosphate buffer (pH 7.5, 0.01%, v/v Tween 20), the reaction was performed in black 384-well microplates. After the addition of 1 μL of 100 mM sodium ascorbate neutralized with an equimolar amount of 1M NaOH, 1 μL of 100 μM methylene blue, 1 μL of 1 mg/mL bovine catalase, 0.5 μL of DMSO (negative control) or solution of a compound in DMSO, 5 μL of […] hIDO2 and 1.5 μL of 26.7 mM L-Trp were added and the microplate was incubated for 60 min at 37 °C. The reaction was quenched with the addition of 10 μL of 400 mM piperidine solution in MilliQ water and the formation of the examined fluorophore began following incubation at 65 °C for 20 min. The production of NFK-derived fluorophore (λEX = 400 nm, λEM = 500 nm) was measured using a microplate reader (Synergy H4; BioTek Instruments, Inc., Winooski, VT, USA) after 60 min post-incubation at room temperature. In the preliminary testing compounds were tested at 100 μM with activities determined as residual activities—RA, which were calculated to% of inhibition, presented in Table 1 and Table 2. (% of inhibition = 100% − RA). All determinations were carried out in duplicates.
# hTDO = target: T2, hTDO (Homo sapiens, UniProt P48775); assay: hTDO inhibitory potency evaluation (fluorescence assay); type: biochemical; settings: 100 µM compound; n.a. = not active; read-out: TDO % of Inhibition @ 100 µM
# T2 construct: purchased Vinci-Biochem
# Experimental: as §1
# The activity of the compounds on hTDO was determined according to the previously reported fluorescence protocol for hIDO1 [25] and reported absorbance protocols for hTDO [30] with several modifications. Recombinant hTDO was purchased from Vinci-Biochem (Vinci-Biochem, Vinci, Italy), bovine catalase was purchased from Sigma-Aldrich (Sigma-Aldrich, St. Louis, MO, USA). Prior to the measurement of activity for compounds, the enzyme activity was determined, and optimal assay enzyme concentration was selected. The amounts of reagents needed to perform the assay were optimized. Briefly, the reagents needed were dissolved in 50 mM potassium phosphate buffer (pH 7.0, 0.01%, v/v Tween 20), the reaction was performed in black 384-well microplates. After the addition of 1 μL of 100 mM sodium ascorbate neutralized with equimolar amount of 1 M NaOH, 1 μL of 100 μM methylene blue, 1 μL of 1 mg/mL bovine catalase, 0.5 μL of DMSO (negative control) or solution of a compound, 5 μL of 300 nM hTDO and 1.5 μL of 3.3 mM L-Trp were added and the microplate was incubated for 60 min at 37 °C. The reaction was quenched with the addition of 10 μL of 400 mM piperidine solution in MilliQ water and the formation of the examined fluorophore began following incubation at 65 °C for 20 min. The production of NFK-derived fluorophore (λEX = 400 nm, λEM = 500 nm) was measured using a microplate reader (Synergy H4; BioTek Instruments, Inc., Winooski, VT, USA) after 60 min post-incubation at room temperature. In the preliminary testing compounds were tested at 100 μM with activities determined as residual activities—RA, which were calculated to% of inhibition, presented in Table 1 and Table 2 (% of inhibition = 100% − RA). All determinations were carried out in duplicates.
# IDO1 = IDO1 (Homo sapiens, UniProt P14902); assay: hIDO1 inhibitory potency evaluation (fluorescence assay, NFK-derived fluorophore); type: biochemical; parameters: gene encoding human IDO1 residues 6-403 His-tagged at the N-terminus; His tag (N); made in house; host or cells: Escherichia coli NiCo21; settings: for IC50: recombinant hIDO1, mean ± SD of at least two independent determinations, read-out: IDO1 IC50
# Hep G2 cell line = assay: Cytotoxicity, MTS cell proliferation assay; type: cell-based; settings: Hep G2 cells, 10 μM, 24 h
# Experimental: All active compounds were additionally evaluated on a cellular level, starting with the determination of cytotoxicity on Hep G2 cell line using the MTS assay (Figure 3), where inner salt of [3-(4,5-dimethylthiazol-2-yl)-5-(3-carboxymethoxyphenyl)-2-(4-sulfophenyl)-2H-tetrazolium is converted to formazan product, its quantity is directly proportional to the number of living cells. Since the majority of compounds were only partially soluble in a cell medium at concentrations above 100 μM, their effect on cell viability was measured at 50 μM, 10 μM, and 1 μM. […] Taken together, the results obtained from cellular tests reminded us of the necessity to consider the physicochemical properties of compounds even at the early stages of design.
# Cytotoxicity of the compounds was determined on HepG2 cell line using the MTS cell proliferation assay (CellTiter 96 AQueous One Solution Cell Proliferation Assay, Promega, Madison, WI, USA). The cells were seeded in 96-well plates (3 × 10^4 cells/well) and maintained in Dulbecco’s Modified Eagle’s Medium, supplemented with 10% fetal bovine serum (both from Thermo Fisher Scientific, Waltham, MA, USA) and 100 µg/mL gentamicin (Sigma-Aldrich, St. Louis, MO, USA). Following overnight incubation in a humidified chamber at 37 °C and 5% CO2 cells were treated with the compounds of interest at final concentrations of 1 µM, 10 µM, 50 µM, 100 µM, 150 µM, and 200 µM. After 24h incubation under the same conditions, 100 µL of the medium from each well were collected and mixed with 10 µL of MTS solution. Following 3h incubation, the absorbance (λABS = 490 nm) was measured using a microplate reader (Synergy H4; BioTek Instruments, Inc., Winooski, VT, USA). The results are expressed as means of triplicates ± standard deviation of three independent experiments.
# T2 sequence (P48775 whole entry): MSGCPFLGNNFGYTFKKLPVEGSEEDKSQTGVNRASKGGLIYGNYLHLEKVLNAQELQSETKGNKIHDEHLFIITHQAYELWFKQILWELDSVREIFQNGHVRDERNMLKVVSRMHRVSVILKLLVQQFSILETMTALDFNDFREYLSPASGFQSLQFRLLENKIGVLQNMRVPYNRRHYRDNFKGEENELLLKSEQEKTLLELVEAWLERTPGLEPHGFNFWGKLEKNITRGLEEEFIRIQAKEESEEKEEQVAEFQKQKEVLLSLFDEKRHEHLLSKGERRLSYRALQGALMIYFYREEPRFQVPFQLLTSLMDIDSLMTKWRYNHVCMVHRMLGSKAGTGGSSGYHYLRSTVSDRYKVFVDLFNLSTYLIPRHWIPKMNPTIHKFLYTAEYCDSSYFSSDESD
# IDO1, sequence (P14902 6-403): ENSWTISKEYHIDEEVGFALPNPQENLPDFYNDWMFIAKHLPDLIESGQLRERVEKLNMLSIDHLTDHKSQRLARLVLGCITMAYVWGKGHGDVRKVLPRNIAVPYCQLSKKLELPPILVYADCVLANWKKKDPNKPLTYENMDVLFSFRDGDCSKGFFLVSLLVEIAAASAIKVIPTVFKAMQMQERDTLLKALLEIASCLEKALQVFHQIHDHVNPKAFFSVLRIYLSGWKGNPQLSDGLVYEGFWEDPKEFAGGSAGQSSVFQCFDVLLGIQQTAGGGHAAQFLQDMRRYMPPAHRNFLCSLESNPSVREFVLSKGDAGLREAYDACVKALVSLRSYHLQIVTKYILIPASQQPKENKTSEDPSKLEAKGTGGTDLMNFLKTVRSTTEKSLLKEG
Compound,inhibition at 100 µM (hIDO2) [%],inhibition at 100 µM (hTDO) [%],melting point [°C],"inhibition at 100 µM (IDO1; 100 µM compound, n.a. = not active, read-out: IDO1 % of Inhibition @ 100 µM) [%]",IC50 (IDO1) [µM],effect on cell viability (Hep G2 cell line),hIDO1 inhibition (in words) (IDO1)
O=C(Cn1cnc2onc(-c3ccc(F)cc3)c2c1=O)Nc1cccc([N+](=O)[O-])c1 [Compound 24],39 ± 5,25 ± 8,232 to 235,30 ± 2,–,–,–
O=C(Cn1cnc2onc(-c3ccc(F)cc3)c2c1=O)Nc1ccc([N+](=O)[O-])cc1 [Compound 25],28,24 ± 7,200 to 203,–,98,–,–
COC(=O)c1ccc(NC(=O)Cn2cnc3onc(-c4ccccc4)c3c2=O)cc1 [Compound 39],11 ± 7,–,200 to 202,–,22,significantly impacted cell viability,low micromolar range
O=C(Cn1cnc2onc(-c3ccc(F)c(Br)c3)c2c1=O)Nc1ccc([N+](=O)[O-])cc1 [Compound 49],–,10 ± 2,226 to 228,–,96,significantly impacted cell viability,–
